The values that follow come from publication PMC7866225, “Microwave-Assisted Synthesis of (Piperidin-1-yl)quinolin-3-yl)methylene)hydrazinecarbothioamides as Potent Inhibitors of Cholinesterases: A Biochemical and In Silico Approach” (Molecules, 2021).

A short description of data set [1]: In vitro cytotoxicity, MTT assay. Format: cell-based. Particulars: human, HepG2 cells, 24 h, control = 100, read-out: Cell Viability; for viability at 24 h, 50 μg/mL: HepG2, 50 μg/mL; for viability at 24 h, 100 μg/mL: HepG2, 100 μg/mL; for viability at 24 h, 200 μg/mL: HepG2, 200 μg/mL; for viability at 24 h, 500 μg/mL: HepG2, 500 μg/mL; for viability at 24 h, 1000 μg/mL: HepG2, 1000 μg/mL. The procedure: (§1) HepG2 cell line was obtained from the cell culture laboratory established in The University of Lahore. These cell lines were preserved in cryo vials present in liquid nitrogen. Cryo vials were revived for further processing.
(§2) The cryo vials obtained from liquid nitrogen cylinder were thawed. Then HepG2 cells were cultured in the culturing flask in which DMEM-HG along with 10% fetal bovine serum (FBS), supplemented with […] (Sigma) and 100 U/mL streptomycin (Sigma) were added. Cultures were maintained in a humidified incubator supplied with 5% CO2 at 37 °C. Experiments were performed in triplicates. When cultured HepG2 cells achieved 70–80% confluence their subculturing was conducted. For splitting, the cells attached to the walls of the culturing flask were washed with 1× phosphate buffer saline (PBS) and incubated with 0.05% trypsin-EDTA until cells detached from the surface of culturing flask. The detachment of the cells was confirmed by observing the flask under the inverted microscope. A few drops of FBS were added to the flask and mixed well by stirring. The mixture was centrifuged at 2000 rpm for 5 min. After centrifugation the supernatant was removed, and pellet was resuspended. HepG2 cells were cultured onto 96-well plates for measurement of cell viability. Treatment was given for both compounds at a concentration of 0–1000 µg/mL for 24 h.
(§3) After 4 h formazan crystals were solubilized with 10% sodium dodecylsulphate (SDS) (Invitrogen Inc.) and absorbance was taken at 570 nm. Percentage viability was calculated according to the following formula:% Viable cells = ((abs sample − abs blank) / (abs control − abs blank)) × 100 (1) where abs stands for absorbance.

The next data set concerns HepG2 cells. Kind of data set: In vitro cytotoxicity, MTT assay. Format: cell-based. The conditions noted are these: HepG2, MTT, 0–1000 µg/mL, 24 h. The procedure:
as §1, §2, §3

Data set [2] concerns the target Butyrylcholinesterase (BChE) (Equus caballus, UniProt P81908). Kind of data set: biochemical. Particulars: Ellman's method, triplicate; read-out: Butyrylcholinesterse (BChE) IC50 ± SEM. The protocol:
(§4) Modified Ellman’s method was adopted to investigate the inhibitory potential of newly synthesized compounds against cholinesterase enzymes. The assay protocol involved 96-well plates (100 μL per well). Each well contained 20 μL of assay buffer solution, 10 μL of test sample, and 10 μL of 0.5 U/mg of AChE (for AChE inhibition assay) or 10 μL of 3.4 U/mg of BChE (for BChE inhibition assay). This mixture was incubated at 25 °C for 10 min followed by the addition of substrate (10 μL). For AChE inhibition assay, acetylthiocholine iodide (ATCI, 1 mM) while for BChE assay, butyrylthiocholine chloride (BTCCl, 1 mM), was added. This mixture was incubated for 15 min at 37 °C. Ellman reagent (5,5′-dithio-bis(2-nitrobenzoic acid), DTNB, 3 mM) was added. […] Blank assay was also performed. All the analyses were performed in triplicate. IC50 values were also calculated for the synthesized compounds in GraphPad prism 5.0. using nonlinear regression method.

Data set [3] deals with Acetylcholinesterase (AChE) (Electrophorus electricus, UniProt O42275). Kind of data set: biochemical. Particulars: Ellman's method, triplicate; read-out: Acetylcholinesterase (AChE) IC50 ± SEM. The protocol:
as §4

The structures appear in SMILES notation. Several values for one entry are separate records, joined by “and”; a condition that tells them apart may be missing. Equal values may be shown once.

Chain of Acetylcholinesterase (AChE) (O42275 24-633): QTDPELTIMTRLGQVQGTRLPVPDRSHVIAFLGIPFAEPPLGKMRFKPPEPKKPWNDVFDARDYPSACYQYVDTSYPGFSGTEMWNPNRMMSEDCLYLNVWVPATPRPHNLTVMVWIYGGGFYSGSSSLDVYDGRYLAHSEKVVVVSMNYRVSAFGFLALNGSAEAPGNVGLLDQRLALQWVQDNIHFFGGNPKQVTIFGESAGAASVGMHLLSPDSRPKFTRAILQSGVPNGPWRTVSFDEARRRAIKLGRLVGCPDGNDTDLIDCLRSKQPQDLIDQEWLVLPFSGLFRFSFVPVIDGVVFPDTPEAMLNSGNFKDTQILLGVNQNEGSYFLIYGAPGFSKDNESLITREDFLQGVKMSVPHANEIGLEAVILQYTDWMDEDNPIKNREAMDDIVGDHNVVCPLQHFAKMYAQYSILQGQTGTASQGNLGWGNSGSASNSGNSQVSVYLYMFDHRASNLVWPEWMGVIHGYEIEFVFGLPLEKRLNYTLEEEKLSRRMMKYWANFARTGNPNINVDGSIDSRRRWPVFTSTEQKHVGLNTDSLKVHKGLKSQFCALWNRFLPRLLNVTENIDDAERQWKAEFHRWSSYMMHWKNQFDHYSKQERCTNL
Chain of Butyrylcholinesterase (BChE) (P81908 whole entry): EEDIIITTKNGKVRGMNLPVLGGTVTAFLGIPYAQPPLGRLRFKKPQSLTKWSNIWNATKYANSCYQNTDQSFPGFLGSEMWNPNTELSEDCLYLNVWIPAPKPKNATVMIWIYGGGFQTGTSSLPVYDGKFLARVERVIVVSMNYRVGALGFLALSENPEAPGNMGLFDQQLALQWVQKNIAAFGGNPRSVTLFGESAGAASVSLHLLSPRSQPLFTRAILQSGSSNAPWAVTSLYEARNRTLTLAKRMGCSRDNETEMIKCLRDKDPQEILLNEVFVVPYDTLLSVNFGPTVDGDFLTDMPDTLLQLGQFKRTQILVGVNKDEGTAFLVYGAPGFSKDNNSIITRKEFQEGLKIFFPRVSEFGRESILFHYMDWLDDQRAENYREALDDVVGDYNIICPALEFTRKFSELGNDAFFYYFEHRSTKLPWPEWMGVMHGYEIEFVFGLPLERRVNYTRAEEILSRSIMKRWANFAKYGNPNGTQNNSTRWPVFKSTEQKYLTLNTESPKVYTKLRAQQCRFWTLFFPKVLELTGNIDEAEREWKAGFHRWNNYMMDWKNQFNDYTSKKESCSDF

As for `CCc1ccc(NC(=S)NN=Cc2cc3cccc(C)c3nc2N2CCCCC2)cc1` [Compound 6k, N-(4-Ethylphenyl)-2-((8-methyl-2-(piperidin-1-yl)quinolin-3-yl)methylene)hydrazine carbothioamide], in data set [1], the viability at 24 h, 50 μg/mL was 103%; the viability at 24 h, 100 μg/mL is 105%; the viability at 24 h, 200 μg/mL came to 107%; the viability at 24 h, 500 μg/mL worked out at 138%. Further, the viability at 24 h, 1000 μg/mL in data set [1] stood at 157%. Also, the Status result in the data set on HepG2 cells is “Proliferative”. Moreover, the IC50 in data set [2] was found to be 32.01 ± 0.31 µM. The concentration for half-maximal inhibition (IC50) in data set [3] was 39.9 ± 0.85 µM.
Take `Cc1ccc2nc(N3CCCCC3)c(C=NNC(=S)Nc3c(C)cccc3C)cc2c1` [Compound 5d, N-(2,6-Dimethylphenyl)-2-((6-methyl-2-(piperidin-1-yl)quinolin-3-yl)methylene)hydrazine carbothioamide]: in data set [1], the viability at 24 h, 50 μg/mL came to 105%; the viability at 24 h, 100 μg/mL was 108%; the viability at 24 h, 200 μg/mL amounted to 110%; the viability at 24 h, 500 μg/mL is 134%. The viability at 24 h, 1000 μg/mL in data set [1] was found to be 131%. Besides, the Status entry in the data set with HepG2 cells was “Proliferative”. The half-maximal inhibitory concentration (IC50) in data set [2] worked out at 29.8 ± 1.2 µM. Besides, in data set [3], the IC50 stood at 25.9 ± 0.96 µM.
In the case of `Cc1ccc2nc(N3CCCCC3)c(C=NNC(=S)NCc3ccccc3)cc2c1` [Compound 5l, N-Benzyl-2-((6-methyl-2-(piperidin-1-yl)quinolin-3-yl)methylene)hydrazinecarbothioamide], in data set [1], the viability at 24 h, 50 μg/mL came out at 101%; the viability at 24 h, 100 μg/mL came out at 101%; the viability at 24 h, 200 μg/mL is 107%; the viability at 24 h, 500 μg/mL was 109%. In addition, the viability at 24 h, 1000 μg/mL in data set [1] was 133%. Also, the Status entry with HepG2 cells is “Proliferative”. The half-maximal inhibitory concentration (IC50) in data set [2] is 45.02 ± 0.38 µM. Moreover, the IC50 in data set [3] came out at 35.1 ± 1.2 µM.
As for `Cc1ccc2nc(N3CCCCC3)c(C=NNC(=S)Nc3ccccc3)cc2c1` [Compound 5b, 2-((6-Methyl-2-(piperidin-1-yl)quinolin-3-yl)methylene)-N-phenylhydrazinecarbothioamide], in data set [1], the viability at 24 h, 50 μg/mL is 106%; the viability at 24 h, 100 μg/mL worked out at 107%; the viability at 24 h, 200 μg/mL was 139%; the viability at 24 h, 500 μg/mL is 169%. Besides, in data set [1], the viability at 24 h, 1000 μg/mL came to 227%. In addition, the Status result in the data set with HepG2 cells is given as “Proliferative”. Moreover, the IC50 in data set [2] came to 33.1 ± 0.09 µM. In addition, the IC50 in data set [3] came to 25.1 ± 0.25 µM.
Turning to `Cc1cccc2cc(C=NNC(=S)Nc3ccccc3)c(N3CCCCC3)nc12` [Compound 6b, 2-((8-Methyl-2-(piperidin-1-yl)quinolin-3-yl)methylene)-N-phenylhydrazinecarbothioamide], in data set [1], the viability at 24 h, 50 μg/mL is 89.9%; the viability at 24 h, 100 μg/mL is 95.7%; the viability at 24 h, 200 μg/mL was determined as 92.8%; the viability at 24 h, 500 μg/mL was determined as 112%. The viability at 24 h, 1000 μg/mL in data set [1] was determined as 69.2%. The Status result in the data set on HepG2 cells was “Cytotoxic”. Moreover, in data set [2], the IC50 was 28.8 ± 0.63 µM. Also, in data set [3], the IC50 turned out to be 25.9 ± 0.45 µM.
On to `Cc1cccc2cc(C=NNC(=S)NCc3ccccc3)c(N3CCCCC3)nc12` [Compound 6l, N-Benzyl-2-((8-methyl-2-(piperidin-1-yl)quinolin-3-yl)methylene)hydrazinecarbothioamide], for which, in data set [1], the viability at 24 h, 50 μg/mL came out at 103%; the viability at 24 h, 100 μg/mL is 105%; the viability at 24 h, 200 μg/mL was determined as 107%; the viability at 24 h, 500 μg/mL came to 138%. Also, the viability at 24 h, 1000 μg/mL in data set [1] was 157%. Besides, in the data set on HepG2 cells, the Status result is given as “Proliferative”. Also, in data set [2], the half-maximal inhibitory concentration (IC50) worked out at 41 ± 0.89 µM. Moreover, the IC50 in data set [3] worked out at 57.25 ± 0.03 µM.
With `Cc1cccc2cc(C=NNC(=S)Nc3ccccc3Cl)c(N3CCCCC3)nc12` [Compound 6e, N-(2-Chlorophenyl)-2-((8-methyl-2-(piperidin-1-yl)quinolin-3-yl)methylene)hydrazine carbothioamide], in data set [1], the viability at 24 h, 50 μg/mL was determined as 102%; the viability at 24 h, 100 μg/mL is 112%; the viability at 24 h, 200 μg/mL was determined as 167%; the viability at 24 h, 500 μg/mL is 180%. In addition, the viability at 24 h, 1000 μg/mL in data set [1] was determined as 212%. In the data set on HepG2 cells, the Status entry is “Proliferative”. Moreover, the 50% inhibitory concentration (IC50) in data set [2] was found to be 37.1 ± 0.59 µM. The half-maximal inhibitory concentration (IC50) in data set [3] worked out at 32.11 ± 0.15 µM.
As to `Cc1cccc2cc(C=NNC(=S)Nc3cccc(F)c3)c(N3CCCCC3)nc12` [Compound 6i, N-(3-Fluorophenyl)-2-((8-methyl-2-(piperidin-1-yl)quinolin-3-yl)methylene)hydrazine carbothioamide], in data set [1], the viability at 24 h, 50 μg/mL came to 95.5%; the viability at 24 h, 100 μg/mL was found to be 102%; the viability at 24 h, 200 μg/mL amounted to 131%; the viability at 24 h, 500 μg/mL came out at 112%. The viability at 24 h, 1000 μg/mL in data set [1] is 186%. Besides, the Status result in the data set with HepG2 cells is “Proliferative”. Moreover, the IC50 in data set [2] was 51.11 ± 0.28 µM. Besides, in data set [3], the IC50 stood at 15.8 ± 1.3 µM.
As to `Cc1ccc2nc(N3CCCCC3)c(C=NNC(=S)NCCN3CCOCC3)cc2c1` [Compound 5m, 2-((6-Methyl-2-(piperidin-1-yl)quinolin-3-yl)methylene)-N-(2-morpholinoethyl)hydrazine carbothioamide], in data set [1], the viability at 24 h, 50 μg/mL is 94%; the viability at 24 h, 100 μg/mL was found to be 102%; the viability at 24 h, 200 μg/mL stood at 109%; the viability at 24 h, 500 μg/mL turned out to be 107%. Besides, the viability at 24 h, 1000 μg/mL in data set [1] was 115%. Moreover, in the data set with HepG2 cells, the Status result is reported as “Non-cytotoxic”. For the same molecule, in data set [2], the IC50 was 59.35 ± 0.13 µM. Further, in data set [3], the concentration for half-maximal inhibition (IC50) amounted to 62.3 ± 0.68 µM.
On to `Cc1cccc2cc(C=NNC(=S)Nc3ccc(F)cc3)c(N3CCCCC3)nc12` [Compound 6j, N-(4-Fluorophenyl)-2-((8-methyl-2-(piperidin-1-yl)quinolin-3-yl)methylene)hydrazine carbothioamide], for which, in data set [1], the viability at 24 h, 50 μg/mL amounted to 103%; the viability at 24 h, 100 μg/mL turned out to be 93.7%; the viability at 24 h, 200 μg/mL was 94.8%; the viability at 24 h, 500 μg/mL is 108%. The viability at 24 h, 1000 μg/mL in data set [1] amounted to 114%. Also, the Status result in the data set with HepG2 cells is “Non-cytotoxic”. Moreover, the IC50 in data set [2] is 51 ± 0.52 µM. Further, the IC50 in data set [3] was 56.66 ± 0.41 µM.
In the case of `Cc1cccc2cc(C=NNC(=S)Nc3cccc(Cl)c3)c(N3CCCCC3)nc12` [Compound 6f, N-(3-Chlorophenyl)-2-((8-methyl-2-(piperidin-1-yl)quinolin-3-yl)methylene)hydrazine carbothioamide], in data set [1], the viability at 24 h, 50 μg/mL amounted to 110%; the viability at 24 h, 100 μg/mL stood at 110%; the viability at 24 h, 200 μg/mL was determined as 109%; the viability at 24 h, 500 μg/mL was determined as 139%. Moreover, the viability at 24 h, 1000 μg/mL in data set [1] was determined as 189%. In addition, in the data set with HepG2 cells, the Status entry was “Proliferative”. Besides, the half-maximal inhibitory concentration (IC50) in data set [2] is < 20 µM and 11.6 µM. In addition, the half-inhibitory concentration (IC50) in data set [3] was < 20 µM and 9.68 µM.
In the case of `Cc1cccc2cc(C=NNC(=S)NCCN3CCOCC3)c(N3CCCCC3)nc12` [Compound 6m, 2-((8-Methyl-2-(piperidin-1-yl)quinolin-3-yl)methylene)-N-(2-morpholinoethyl)hydrazine carbothioamide], in data set [1], the viability at 24 h, 50 μg/mL turned out to be 97.9%; the viability at 24 h, 100 μg/mL turned out to be 96.8%; the viability at 24 h, 200 μg/mL was 95.3%; the viability at 24 h, 500 μg/mL was 97.4%. Further, in data set [1], the viability at 24 h, 1000 μg/mL was found to be 87.6%. The Status result in the data set with HepG2 cells is “Cytotoxic”. The concentration for half-maximal inhibition (IC50) in data set [2] was determined as 35.1 ± 0.77 µM. In data set [3], the IC50 is 21 ± 2.3 µM.

A word on the viability: it is a read-out of living cells in per cent, often relative to untreated cells. As usually defined, the IC50 is the point on the concentration scale where inhibition reaches its midpoint.
